In test [1] the target is biotinylated Avi-POLθ[2-894] (Homo sapiens (Human), UniProt O75417). In words: POLθ ATPase assay (ADP-Glo). To be noted: n=2, read-out: Biochemical ATPase ADPGlo IC50. Background: In ADP-Glo the light output rises with the ADP produced.
The next test concerns DLD1 BRCA2 (−/−) cells. In words: 7-day cell viability assay (CellTiter-Glo), DLD1 BRCA2 (−/−). It counts as cell-based, human. The note with it: n=2, read-out: Viability IC50 (uM) DLD1 BRCA2 null. The method in brief: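 7-day growth assay in DLD1 cells with or without BRCA2; seeding densities chosen to keep log-linear growth. Compound: 10 uM top, 3-fold, 9 points. Endpoint: CTG ATP luminescence at RT.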

The subject of a further test is DLD1 WT cells. Briefly: 7-day cell viability assay (CellTiter-Glo), DLD1 parental (WT). To be noted: n=2. It is filed as cell-based, human. Background: In ATP-based viability assays light output follows the ATP content of the culture.
The mark [2] stands for this setting: Homo sapiens, DLD-1, 168 h, 7-day viability.
The mark [3] stands for this setting: Homo sapiens, DLD-1, 168 h, 7-day CellTiter-Glo.

Where two headings read alike, the source gives them in different places.

biotinylated Avi-POLθ[2-894], sequence (O75417 2-894): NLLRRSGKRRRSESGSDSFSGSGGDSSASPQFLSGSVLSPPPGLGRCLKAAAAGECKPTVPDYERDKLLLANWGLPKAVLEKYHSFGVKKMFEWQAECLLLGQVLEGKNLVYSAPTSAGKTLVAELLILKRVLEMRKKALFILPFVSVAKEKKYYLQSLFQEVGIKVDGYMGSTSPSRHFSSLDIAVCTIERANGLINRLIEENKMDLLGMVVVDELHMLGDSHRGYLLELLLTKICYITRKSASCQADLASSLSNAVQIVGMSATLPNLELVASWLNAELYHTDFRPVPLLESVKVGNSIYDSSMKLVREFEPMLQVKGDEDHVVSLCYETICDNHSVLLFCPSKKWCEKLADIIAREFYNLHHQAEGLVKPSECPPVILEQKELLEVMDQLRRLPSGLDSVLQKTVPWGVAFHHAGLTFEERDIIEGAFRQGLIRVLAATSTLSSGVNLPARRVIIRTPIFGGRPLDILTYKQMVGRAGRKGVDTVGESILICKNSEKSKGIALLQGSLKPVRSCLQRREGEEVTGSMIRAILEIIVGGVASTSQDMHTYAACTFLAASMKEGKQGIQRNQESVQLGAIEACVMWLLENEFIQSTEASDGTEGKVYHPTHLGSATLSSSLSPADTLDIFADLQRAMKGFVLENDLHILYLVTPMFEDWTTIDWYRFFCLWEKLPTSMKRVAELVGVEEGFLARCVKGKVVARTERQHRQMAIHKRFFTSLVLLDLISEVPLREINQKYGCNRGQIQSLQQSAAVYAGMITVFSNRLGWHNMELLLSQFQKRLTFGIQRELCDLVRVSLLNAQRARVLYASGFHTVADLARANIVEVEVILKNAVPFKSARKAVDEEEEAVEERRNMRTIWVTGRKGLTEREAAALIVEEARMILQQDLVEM

By IC50 is commonly meant the concentration that gives 50% inhibition. As for `COc1cnc(Cl)cc1-c1cc(C)ncc1C(=O)Nc1nc2c(s1)CN(C(=O)c1cc(C(F)F)ccn1)C2` [Example 94, 2′-chloro-N-(5-(4-(difluoromethyl)picolinoyl)-5,6-dihydro-4H-pyrrolo[3,4-d]thiazol-2-yl)-5′-methoxy-6-methyl-[4,4′-bipyridine]-3-carboxamide], the half-maximal inhibitory concentration (IC50) in test [1] is 1 to 15 nM; in the test on DLD1 BRCA2 (−/−) cells (setting [2]), 0.001 to 0.1 µM; with DLD1 WT cells (setting [2]), at least 10 µM.
Turning to `COc1ccccc1-c1cc(C)ncc1C(=O)Nc1nc2c(s1)CN(c1ccc(Cl)cc1)CC2`, the IC50 in test [1] is at least 900 nM; in the test with DLD1 BRCA2 (−/−) cells (setting [2]) it was at least 2 µM; in the test on DLD1 WT cells (setting [2]), at least 10 µM.
`COc1cnc(Cl)cc1-c1cc(C)ncc1C(=O)Nc1nc2c(s1)CN(C(=O)c1nccc(Cl)c1OC)C2` [Example 399, 2′-chloro-N-(5-(4-chloro-3-methoxypicolinoyl)-5,6-dihydro-4H-pyrrolo[3,4-d]thiazol-2-yl)-5′-methoxy-6-methyl-[4,4′-bipyridine]-3-carboxamide]: the IC50 in test [1] is 1 to 15 nM; in the test with DLD1 BRCA2 (−/−) cells (setting [2]) it was 0.001 to 0.1 µM; in the test with DLD1 WT cells (setting [2]), at least 10 µM.
For the compound `COc1ccc(C#N)cc1-c1cc(C)ncc1C(=O)Nc1nc2c(s1)CN(S(=O)(=O)NC1CC1)C2`, the IC50 is 1 to 15 nM in test [1], at least 2 µM in the test on DLD1 BRCA2 (−/−) cells (setting [2]) and at least 10 µM in the test on DLD1 WT cells (setting [2]).
Regarding `COc1cnc(Cl)cc1-c1cc(C)ncc1C(=O)Nc1nc2c(s1)CN(C(=O)C1CC(CC(F)F)C1)C2` (stereo not drawn) [Example 177], the figures for the IC50 (in test [1]; in the test on DLD1 BRCA2 (−/−) cells (setting [2]); in the test with DLD1 WT cells (setting [2])) were 1 to 15 nM, 0.001 to 0.1 µM and at least 10 µM, respectively.
On to `COc1cnc(Cl)cc1-c1cc(C)ncc1C(=O)Nc1nc2c(s1)CN(C(=O)[C@H]1C[C@@H](OC)C1)C2` [Example 171], for which the IC50 was 1 to 15 nM in test [1], 0.1 to 0.25 µM in the test with DLD1 BRCA2 (−/−) cells (setting [2]) and at least 10 µM with DLD1 WT cells (setting [2]).
With `COc1ccc(C#N)cc1-c1cc(C)ncc1C(=O)Nc1nc2c(s1)CN(C(=O)C1CC(C(F)F)C1)C2` (stereo not drawn) [Example 244], the IC50 in test [1] is 1 to 15 nM; with DLD1 BRCA2 (−/−) cells (setting [2]), 0.5 to 2 µM; in the test with DLD1 WT cells (setting [2]), at least 10 µM.
With `COc1cnc(Cl)cc1-c1cc(C)ncc1C(=O)Nc1nc2c(s1)CN(C(=O)c1cccc(C(F)(F)F)n1)C2` [Example 21, 2′-chloro-5′-methoxy-6-methyl-N-(5-(6-(trifluoromethyl)picolinoyl)-5,6-dihydro-4H-pyrrolo[3,4-d]thiazol-2-yl)-[4,4′-bipyridine]-3-carboxamide], the results for the IC50 (in test [1]; in the test with DLD1 BRCA2 (−/−) cells (setting [2]); with DLD1 WT cells (setting [2])) were 1 to 15 nM, 0.001 to 0.1 µM and at least 10 µM, respectively.
In the case of `COc1cnc(Cl)cc1-c1cc(C)ncc1C(=O)Nc1nc2c(s1)CN(C(=O)c1cc(Cl)ccn1)C2` [Example 78, 2′-chloro-N-(5-(4-chloropicolinoyl)-5,6-dihydro-4H-pyrrolo[3,4-d]thiazol-2-yl)-5′-methoxy-6-methyl-[4,4′-bipyridine]-3-carboxamide], the half-inhibitory concentration (IC50) in test [1] is 1 to 15 nM; in the test on DLD1 BRCA2 (−/−) cells (setting [2]) it was 0.001 to 0.1 µM; in the test on DLD1 WT cells (setting [2]), 5 to 10 µM.
For `COc1cnc(Cl)cc1-c1cc(C)ncc1C(=O)Nc1nc2c(s1)CN(C(=O)C1CCC(OC(F)F)CC1)C2` (stereo not drawn) [Example 2, (Cis and Trans) 2′-chloro-N-(5-(4-(difluoromethoxy)cyclohexane-1-carbonyl)-5,6-dihydro-4H-pyrrolo[3,4-d]thiazol-2-yl)-5′-methoxy-6-methyl-[4,4′-bipyridine]-3-carboxamide], the IC50 is 1 to 15 nM in test [1], 0.001 to 0.1 µM in the test with DLD1 BRCA2 (−/−) cells (setting [2]) and at least 10 µM with DLD1 WT cells (setting [2]).
Turning to `COc1ccccc1-c1cc(C)ncc1C(=O)Nc1nc2c(s1)C(=O)NCC2`, the IC50 in test [1] was at least 900 nM; in the test on DLD1 BRCA2 (−/−) cells (setting [2]) it was at least 2 µM; in the test with DLD1 WT cells (setting [2]), at least 10 µM.
With `COc1ccc(C#N)cc1-c1cc(C)ncc1C(=O)Nc1nc2c(s1)CN(C(=O)c1cccc(C(F)F)c1Cl)C2` [Example 487], the IC50 in test [1] (POLθ ATPase, ADP-Glo) was 1 to 15 nM; in the test on DLD1 BRCA2 (−/−) cells (setting [3]) it was 0.001 to 0.1 µM; in the test with DLD1 WT cells (setting [3]) it was at least 10 µM.
On to `COc1cnc(Cl)cc1-c1cc(C)ncc1C(=O)Nc1nc2c(s1)CN(C(=O)[C@H]1CC[C@@H](OC)CC1)C2` [Example 48, 2′-chloro-5′-methoxy-N-(5-((1s,4s)-4-methoxycyclohexane-1-carbonyl)-5,6-dibydro-4H-pyrrolo[3,4-d]thiazol-2-yl)-6-methyl-[4,4′-bipyridine]-3-carboxamide], for which the values for the half-inhibitory concentration (IC50) (in test [1]; in the test on DLD1 BRCA2 (−/−) cells (setting [2]); in the test with DLD1 WT cells (setting [2])) were 1 to 15 nM, 0.001 to 0.1 µM and at least 10 µM, respectively.
Take `COc1cnc(Cl)cc1-c1cc(C)ncc1C(=O)Nc1nc2c(s1)CN(C(=O)c1nc(C(F)F)ccc1Cl)C2`: the IC50 in test [1] (POLθ ATPase, ADP-Glo) is 1 to 15 nM; in the test with DLD1 BRCA2 (−/−) cells (setting [3]), 0.001 to 0.1 µM; with DLD1 WT cells (setting [3]) it was at least 10 µM.
With `COc1cnc(Cl)cc1-c1cc(C)ncc1C(=O)Nc1nc2c(s1)CN(C(=O)c1nccc(Cl)c1C)C2`, the IC50 in test [1] (POLθ ATPase, ADP-Glo) was 1 to 15 nM; in the test on DLD1 BRCA2 (−/−) cells (setting [3]), 0.001 to 0.1 µM; in the test on DLD1 WT cells (setting [3]), at least 10 µM.
Regarding `COc1cnc(Cl)cc1-c1cc(C)ncc1C(=O)Nc1nc2c(s1)CN(C(=O)c1ncc(Cl)cc1OC)C2`, the IC50 in test [1] is 1 to 15 nM; in the test on DLD1 BRCA2 (−/−) cells (setting [2]), 0.001 to 0.1 µM; in the test with DLD1 WT cells (setting [2]) it was at least 10 µM.
Regarding `COc1cnc(Cl)cc1-c1cc(C)ncc1C(=O)Nc1nc2c(s1)CN(C(=O)c1cnc(C(F)F)cc1Cl)C2` [Example 36, 2′-chloro-N-(5-(4-chloro-6-(difluoromethyl)nicotinoyl)-5,6-dihydro-4H-pyrrolo[3,4-d]thiazol-2-yl)-S′-methoxy-6-methyl-[4,4′-bipyridine]-3-carboxamide], the IC50 in test [1] was 1 to 15 nM; with DLD1 BRCA2 (−/−) cells (setting [2]), 0.001 to 0.1 µM; with DLD1 WT cells (setting [2]) it was at least 10 µM.
The corresponding values for `COc1ccc(C(=O)N2Cc3nc(NC(=O)c4cnc(C)cc4-c4cc(Cl)ncc4OC)sc3C2)nc1` [Example 121] are 1 to 15 nM, 0.001 to 0.1 µM and at least 10 µM.
Consider `COc1ccccc1-c1cc(C)ncc1C(=O)Nc1nc2c(s1)CNCC2`, for which the results for the IC50 (in test [1]; in the test with DLD1 BRCA2 (−/−) cells (setting [2]); in the test with DLD1 WT cells (setting [2])) were at least 900 nM, at least 2 µM and at least 10 µM, respectively.
On to `COc1cnc(Cl)cc1-c1cc(C)ncc1C(=O)Nc1nc2c(s1)CN(C(=O)c1ncc(Cl)cn1)C2` [Example 35, 2′-chloro-N-(5-(5-chloropyrimidine-2-carbonyl)-5,6-dihydro-4H-pyrrolo[3,4-d]thiazol-2-yl)-5′-methoxy-6-methyl-[4,4′-bipyridine]-3-carboxamide], for which the values for the half-maximal inhibitory concentration (IC50) (in test [1]; with DLD1 BRCA2 (−/−) cells (setting [2]); in the test with DLD1 WT cells (setting [2])) were 1 to 15 nM, 0.001 to 0.1 µM and 2 to 5 µM, respectively.
For the compound `COc1cnc(Cl)cc1-c1cc(C)ncc1C(=O)Nc1nc2c(s1)CN(C(=O)c1ccc(C(F)(F)F)nc1)C2` [Example 42, 2′-chloro-5′-methoxy-6-methyl-N-(5-(6-(trifluoromethyl)nicotinoyl)-5,6-dihydro-4H-pyrrolo[3,4-d]thiazol-2-yl)-[4,4′-bipyridine]-3-carboxamide], the IC50 in test [1] is 1 to 15 nM; in the test with DLD1 BRCA2 (−/−) cells (setting [2]) it was 0.001 to 0.1 µM; with DLD1 WT cells (setting [2]), at least 10 µM.
Regarding “N-(5-(2-Chloro-5-(difluoromethyl)benzoyl)-5,6-dihydro-4H-pyrrolo[3,4-d]thiazol-2-yl)-4-(5-cyano-2-methoxyphenyl)-6-methylnicotinamide [Example 489]”, the IC50 in test [1] (POLθ ATPase, ADP-Glo) fell in the range of 1 to 15 nM; with DLD1 BRCA2 (−/−) cells (7-day CellTiter-Glo), 0.001 to 0.1 µM; in the test with DLD1 WT cells (7-day CellTiter-Glo), 5 to 10 µM.
Regarding `COc1ccc(C#N)cc1-c1cc(C)ncc1C(=O)Nc1nc2c(s1)CN(C(=O)C1CCCCC1)C2`, the concentration for half-maximal inhibition (IC50) in test [1] is 1 to 15 nM; in the test with DLD1 BRCA2 (−/−) cells (setting [2]) it was 0.5 to 2 µM; in the test with DLD1 WT cells (setting [2]), at least 10 µM.

The values are drawn from patent US20250230171A1 (MOMA Therapeutics, Inc., priority 2023, published 2025).
